Activity calls are given as the source filed them.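 The calls were made as follows: active = fitted curve reaches a 40% rise in fluorescent cells at or below the top valid dose; inactive = opposite-direction effect, or the rest.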
Experiment: autofluorescent compounds in non-GFP fibroblasts, dose response, artefact control for X-chromosome reactivation project, imaging, mTEFS fibroblasts, cherry-pick (AID 743396);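 also: raw share of Hoechst-counted cells scored GFP positive without control normalization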
Details: mTEFS fibroblasts autofluorescence, GFP-channel imaging, 3 days
[1] = at 19.5 µM (top of the series), cells pretreated with 5-aza-dC

Row | SMILES | % fluorescent cells increase [1] | further results
1 | COc1cc(/C=C2\SC(=S)N(N3CCOCC3)C2=O)cc(OC)c1OC | -0.007% (inactive) | –
2 | CC(=O)Nc1ccc(NS(=O)(=O)c2ccc3c(c2)oc(=O)n3C)cc1 | 0.01% (inactive) | –
3 | COc1cc(/C=N/Nc2nc(N3CCCC3)nc(N3CCCC3)n2)ccc1OCc1ccccc1F | 0.025% (inactive) | –
4 | Cc1cc(=O)[nH]c(N/N=C/c2cc(C)n(CC(F)(F)F)c2C)n1 | 0% (inactive) | –
5 | O=C(Nc1cccc(S(=O)(=O)NC2=NCCC2)c1)C1CC(=O)N(c2ccc3c(c2)OCCO3)C1 (centres undefined) | -0.007% (inactive) | –
6 | COCCCn1c(N)c(C(=O)Nc2ccccc2)c2nc3ccccc3nc21 | – | % fluorescent cells increase (at 19.5 µM (top of the series)): 0.01% (inactive)
7 | Cc1ccc(S(=O)(=O)Nc2cccc3c2O[C@H](CN(C)C(=O)Nc2cccc4ccccc24)[C@H](C)CN([C@H](C)CO)C3=O)cc1 | 0.048% (inactive) | –
8 | O=C(c1cnccn1)N1CC(=O)N2[C@H](CO)[C@@H](c3ccc(-c4cccc(F)c4)cc3)[C@@H]2C1 | -0.166% (inactive) | –
9 | CC(C)CC(=O)Nc1c2c(nn1-c1ccc(F)cc1)CSC2 | 0.007% (inactive) | –
10 | Cc1ccc(C)c(OCCC(=O)Nc2cc(S(=O)(=O)N3CCCCC3)ccc2C)c1 | 13% (inactive) | –
11 | CC(C)NC(=O)N(C)C[C@@H]1OCCCC[C@H](C)Oc2ccc(NC(=O)Nc3ccc(C(F)(F)F)cc3)cc2C(=O)N([C@H](C)CO)C[C@@H]1C | 0% (inactive) | –
12 | COc1cc(/C=C/c2ccc3cccc(O)c3n2)ccc1O | 0% (inactive) | –
13 | CC(=O)c1cccc(-c2ccc3c(c2)C(C)(Cc2ccc(S(C)(=O)=O)cc2)C(=O)N3)c1 (centres undefined) | 0% (inactive) | –
14 | Cc1ccccc1NC(=O)c1cn2c(nc3ccccc32)c(C#N)c1C | 2.44% (inactive) | –
15 | O=C1C2C3C=CC(CNS(=O)(=O)c4ccccc4[N+](=O)[O-])(O3)C2C(=O)N1c1ccccc1 (centres undefined) | 0.044% (inactive) | –
16 | Cc1nn(-c2ccccc2)c(C)c1N | 0% (inactive) | –
17 | O=C(CCn1nc(-c2ccc(Cl)cc2)c2ccccc2c1=O)NN1CCOCC1 | 0.116% (inactive) | –
18 | CC(=NNc1ccc2ccccc2n1)c1ccccn1 | 15.8% (inactive) | –
19 | COC(=O)c1c(NC(=O)c2ccc(C)cc2)csc1C | -0.006% (inactive) | –
20 | O=[N+]([O-])/C=C/c1ccc2c(ccn2Cc2ccccc2)c1 | 0% (inactive) | –
21 | COCCN(C(=O)c1ccc2c(c1)C(=O)N(c1ccccc1Cl)C2=O)c1c(N)n(CC(C)C)c(=O)[nH]c1=O | 1.41% (inactive) | –
22 | Cn1c(NC(=O)c2ccc(F)cc2)c(-c2ccccn2)c(=O)c2ccccc21 | 0.007% (inactive) | –
23 | S=C(NCc1ccco1)Nc1cccc(Cl)c1Cl | 0.083% (inactive) | –
24 | Cc1ccc(S(=O)(=O)N(C)C[C@H]2OCCCC[C@@H](C)Oc3ccc(NC(=O)Nc4c(C)noc4C)cc3C(=O)N([C@H](C)CO)C[C@@H]2C)cc1 | 0.012% (inactive) | –
25 | CC(=NNC(=S)Nc1cccc(Cl)c1)c1ccccn1 | 0% (inactive) | –
26 | CCC(C(=O)Nc1cc(OC)c(NC(=O)c2ccccc2)cc1OC)c1ccccc1 (centres undefined) | 0.022% (inactive) | –
27 | O=c1[nH]c(=O)n(CCC2=CCCCC2)c(O)c1/C=N/Nc1ccccc1 | – | % fluorescent cells increase (at 19.5 µM (top of the series)): 0% (inactive)

Row | SMILES | % fluorescent cells increase [1] | further results
28 | C[n+]1c(-c2ccccc2)c2cc(N)ccc2c2ccc(N)cc21 | – | % fluorescent cells increase (at 19.5 µM (top of the series)): 0.212% (inactive)
29 | COCCNC(=S)N(Cc1cccnc1)Cc1ccc(OC)c(OC)c1 | 1.33% (inactive) | –
30 | CC[N+]1=C(C)C(C)(C)c2cc(C)ccc21 | 0.089% (inactive) | –
31 | COc1cc(CNc2nc3ccccc3n2C)cc(OC)c1OC | 0% (inactive) | –
32 | COc1ccc(N(CC(=O)Nc2nccs2)S(=O)(=O)c2c(C)[nH]c(=O)[nH]c2=O)cc1 | 0% (inactive) | –
33 | Cc1ccc(-c2ccccc2[C@@H]2[C@H](C#N)N(S(C)(=O)=O)[C@H]2CO)cc1 | – | % fluorescent cells increase (at 21 µM (top of the series), cells pretreated with 5-aza-dC): -0.036% (inactive)
34 | C[C@H](CO)N1C[C@H](C)[C@H](CN(C)C(=O)Nc2ccc(F)cc2)Oc2ncc(C#Cc3cccc(F)c3)cc2C1=O | -0.166% (inactive) | –
35 | Cc1onc(-c2c(Cl)cccc2Cl)c1-c1nc2cc(Cl)ccc2c(=O)o1 | -0.011% (inactive) | –
36 | O=[N+]([O-])c1ccc(O)c([N+](=O)[O-])c1 | – | % fluorescent cells increase (at 19.5 µM (top of the series)): 0% (inactive)
37 | O=C(O)c1cccnc1C(=O)N1CCc2c([nH]c3ccccc23)C1C(F)(F)F (centres undefined) | 0.447% (inactive) | –
38 | COc1ccc(C(=O)CN2Cc3ccccc3C2=N)cc1 | 0.041% (inactive) | –
39 | COc1ccccc1N=Nc1c(C)[nH]n(-c2ccccc2)c1=O | 0% (inactive) | –
40 | Cc1cc(NC(=O)c2ccccc2)n(-c2nc3ccccc3[nH]2)n1 | 0.023% (inactive) | –
41 | CCOc1cccc(/C=N/NC(=S)Nc2cc(S(=O)(=O)N3CCOCC3)ccc2N2CCOCC2)c1O | 0% (inactive) | –
42 | CCCNNC(=O)C(O)(c1ccccc1)c1ccccc1 | 0.02% (inactive) | –
43 | Brc1ccc(-c2cn3ccccc3n2)cc1 | 0% (inactive) | –
44 | C[C@@H]1C[C@H]2[C@@H]3CCC4=CC(=O)C=C[C@]4(C)[C@@]3(F)[C@@H](O)C[C@]2(C)[C@H]1C(=O)CO | 0% (inactive) | –
45 | CC[C@]12c3[nH]c4cc(CCC(=O)N(C)C)ccc4c3CCN1C(=O)[C@@H](CC(=O)NCCC1=CCCCC1)C[C@@H]2C(=O)N1CCN(C(=O)c2ccco2)CC1 | 0.051% (inactive) | –
46 | Cc1nn(-c2ccccc2)c(N)c1N=O | 0% (inactive) | –
47 | CC(=O)Nc1sc(C)c(C)c1C(=O)OCC(=O)Nc1cc(S(C)(=O)=O)ccc1Cl | 0.274% (inactive) | –
48 | Cc1ccc(C(=O)Cn2cncn2)cc1 | -0.006% (inactive) | –
49 | CC(=Nc1ccc(Cl)cc1N)c1c(O)cc(C)oc1=O | 0.643% (inactive) | –
50 | O=C(Nc1ccccc1)N1C[C@@H]2[C@H](c3ccccc31)[C@H](CO)N2C(=O)c1ccccc1F | 0.041% (inactive) | –
51 | C[C@@H]1CN([C@H](C)CO)C(=O)c2cc(NS(=O)(=O)c3ccc(F)cc3)ccc2O[C@@H](C)CCCCO[C@@H]1CN(C)Cc1ccc2c(c1)OCO2 | 0% (inactive) | –
52 | O=C1CCCC(O)=C1Sc1cc(Cl)c(Cl)cc1Cl | 0% (inactive) | –
53 | COc1ccc(OC)c(NC(=O)Nc2ccc3[nH]ccc3c2)c1 | 0% (inactive) | –
54 | Cc1cc(/C=C2/C(=O)NC(=O)N(Cc3ccco3)C2=O)c(C)n1-c1ccccc1O | – | % fluorescent cells increase (at 19.5 µM (top of the series)): 0% (inactive)

Row | SMILES | % fluorescent cells increase [1] | further results
55 | CCOCCCn1c(=NC(C)=O)c(C#N)cc2c(=O)n3cccc(C)c3nc21 | 0.498% (inactive) | –
56 | CO[C@@H]1CN(C)C(=O)c2ccc(NC(=O)Nc3cccc(Cl)c3)cc2OC[C@H](C)N(C(=O)Nc2c(C)noc2C)C[C@H]1C | 0.367% (inactive) | –
57 | O=C(COC(=O)COc1cccc(C(F)(F)F)c1)NC1CCS(=O)(=O)C1 (centres undefined) | 0.015% (inactive) | –
58 | CCOC(=O)C1(Cc2ccccc2C)CCCN(C(=O)CSC)C1 (centres undefined) | 0% (inactive) | –
59 | CC(=O)OCCNc1cc(Sc2nc3ccccc3[nH]2)c2nonc2c1[N+](=O)[O-] | 9.92% (inactive) | –
60 | Brc1cccc(CNCC2CCCO2)c1 (centres undefined) | 0.009% (inactive) | –
61 | COc1cccc(CNC(=O)c2cc(S(=O)(=O)N3CCCC3)cn2C)c1 | 0% (inactive) | –
62 | Cc1ccc(S(=O)(=O)N2CCOCC2)cc1C(=O)OCC(=O)NC1CCS(=O)(=O)C1 (centres undefined) | 0.086% (inactive) | –
63 | Cc1cccc(CS(=O)(=O)Cc2ccc(C(=O)NCc3cccs3)o2)c1 | 0.029% (inactive) | –
64 | C[C@@H]1CN([C@H](C)CO)C(=O)c2cc(NC(=O)Nc3ccc4c(c3)OCO4)ccc2O[C@@H](C)CCCCO[C@@H]1CN(C)C(=O)Cc1ccccc1 | 0.027% (inactive) | –
65 | Cc1nn(-c2ccccc2)c2ncc(C(=O)c3cc(Cl)ccc3O)cc12 | 0% (inactive) | –
66 | CCN(CC)CCCNC1=C(Cl)C(=O)c2ccccc2C1=O | -0.011% (inactive) | –
67 | O=C(Nc1ccc(F)cc1)N1CC(=O)N2[C@H](CO)[C@H](c3ccc(C#Cc4ccc(F)cc4)cc3)[C@@H]2C1 | -0.166% (inactive) | –
68 | O=c1c2ccccc2nnn1Cc1ccc2ccccc2c1 | 0.015% (inactive) | –
69 | C[C@H]1CN([C@@H](C)CO)C(=O)c2cc(NC(=O)CCCCCC(=O)Nc3ccccc3N)ccc2O[C@H]1CN(C)C(=O)Nc1ccccc1 | 0.017% (inactive) | –
70 | Cn1c(=N)n(CC(=O)c2ccccc2)c2ccccc21 | 0% (inactive) | –
71 | COc1ccc(-c2ccc(C(=O)NCc3cccs3)c3occc23)c(C)c1 | 0.07% (inactive) | –
72 | COc1cccc(CNC(=O)CNC(=S)N(Cc2ccccc2)Cc2ccccc2F)c1 | 0.054% (inactive) | –
73 | C[C@H]1CN([C@@H](C)CO)C(=O)c2ccccc2-c2ccccc2CO[C@H]1CN(C)C(=O)[C@@H](Cc1ccccc1)N(C)C | 0% (inactive) | –
74 | Cc1ccc(S(=O)(=O)c2ccc([N+](=O)[O-])cn2)cc1 | 0% (inactive) | –
75 | CCN1/C(=C/c2ccc3cc(C)ccc3[n+]2CC)Sc2cc(C)c(C)cc21 | – | % fluorescent cells increase (at 6.8 µM (top of the series), cells pretreated with 5-aza-dC): 27.9% (inactive)
76 | NS(=O)(=O)c1cccc(NC(=O)COC(=O)Cc2ccc(S(=O)(=O)N3CCOCC3)s2)c1 | 0% (inactive) | –
77 | C[C@H](CO)N1C[C@H](C)[C@H](CN(C)S(=O)(=O)c2ccccc2)Oc2ccc(NS(=O)(=O)c3ccc(Cl)cc3)cc2C1=O | 0.016% (inactive) | –
78 | C[C@H](NC(=O)C[C@@H]1CC[C@H](NC(=O)Cc2ccccn2)[C@@H](CO)O1)c1ccccc1 | 0.048% (inactive) | –
79 | O=C1Nc2ccccc2/C1=C/c1ccccc1Cl | 0% (inactive) | –

From PubChem BioAssay AID743396 (Broad Institute, 2014)
